Counter-ions that a name gives are not always drawn. Like-named read-outs stand apart in the source and are kept apart here.
Assays:
[1] = target: T1, SARS-CoV-2 PLpro (nsp3 1564–1878) (Severe acute respiratory syndrome coronavirus 2, UniProt P0DTD1); test: biochemical; set-up: FRET-quenched peptide (Pro3) cleavage by PLpro, 10 min pre-incubation, slope over 20 min, normalised to no-compound control; conditions: read-out: % of control remaining
[2] = target: T1, SARS-CoV-2 PLpro (nsp3 1564–1878); test: biochemical; set-up: FRET-quenched peptide (Pro3) cleavage by PLpro, 10 min pre-incubation, slope over 20 min, normalised to no-compound control; conditions: read-out: % of control remaining; remark: listed apart in the source

SMILES: Cc1nc(=O)c2cc(CN(C)c3ccc(C(=O)N[C@@H](CCC(=O)O)C(=O)O)s3)ccc2[nH]1 [Raltitrexed (Tomudex)]
- remaining activity at 3.75 µM ([1]; Well no.=4723, high concentration screen): 106%
- remaining activity at 1.25 µM ([2]; Well no.=4723, low concentration screen): 115%

SMILES: Cc1nc(=O)c2cc(CN(C)c3ccc(C(=O)N[C@@H](CCC(=O)O)C(=O)O)s3)ccc2[nH]1 [Raltitrexed]
- remaining activity at 3.75 µM ([1]; Well no.=6308, high concentration screen): 99.3%
- remaining activity at 3.75 µM ([1]; Well no.=7452, high concentration screen): 99.7%
- remaining activity at 1.25 µM ([2]; Well no.=6308, low concentration screen): 98.3%
- remaining activity at 1.25 µM ([2]; Well no.=7452, low concentration screen): 104%

SMILES: CCC(=O)NCC[C@@H]1CCc2ccc3c(c21)CCO3 [Ramelteon]
- remaining activity at 3.75 µM ([1]; Well no.=8525, high concentration screen): 106%
- remaining activity at 1.25 µM ([2]; Well no.=8525, low concentration screen): 104%

SMILES: CCOC(=O)[C@H](CCc1ccccc1)N[C@@H](C)C(=O)N1[C@H](C(=O)O)C[C@@H]2CCC[C@@H]21 [Ramipril]
- remaining activity at 3.75 µM ([1]; Well no.=2195, high concentration screen): 93.2%
- remaining activity at 3.75 µM ([1]; Well no.=7446, high concentration screen): 98.5%
- remaining activity at 1.25 µM ([2]; Well no.=2195, low concentration screen): 94.4%
- remaining activity at 1.25 µM ([2]; Well no.=7446, low concentration screen): 99.8%

SMILES: Cn1cc(C(=O)[C@@H]2CCc3[nH]cnc3C2)c2ccccc21 [Ramosetron (Hydrochloride)]
- remaining activity at 3.75 µM ([1]; Well no.=7339, high concentration screen): 103%
- remaining activity at 1.25 µM ([2]; Well no.=7339, low concentration screen): 102%

SMILES: CNC(=C[N+](=O)[O-])NCCSCc1ccc(CN(C)C)o1 [Ranitidine (hydrochloride)]
- remaining activity at 3.75 µM ([1]; Well no.=6609, high concentration screen): 104%
- remaining activity at 1.25 µM ([2]; Well no.=6609, low concentration screen): 102%

SMILES: CNC(=C[N+](=O)[O-])NCCSCc1ccc(CN(C)C)o1 [Ranitidine hydrochloride]
- remaining activity at 3.75 µM ([1]; Well no.=1304, high concentration screen): 101%
- remaining activity at 1.25 µM ([2]; Well no.=1304, low concentration screen): 101%

SMILES: CNC(=C[N+](=O)[O-])NCCSCc1ccc(CN(C)C)o1 [Ranitidine.HCl]
- remaining activity at 3.75 µM ([1]; Well no.=1642, high concentration screen): 105%
- remaining activity at 1.25 µM ([2]; Well no.=1642, low concentration screen): 105%

SMILES: COc1ccccc1OCC(O)CN1CCN(CC(=O)Nc2c(C)cccc2C)CC1 (stereo not drawn) [Ranolazine dihydrochloride]
- remaining activity at 3.75 µM ([1]; Well no.=1254, high concentration screen): 106%
- remaining activity at 1.25 µM ([2]; Well no.=1254, low concentration screen): 108%

SMILES: CO[C@H]1C[C@@H]2CC[C@@H](C)[C@@](O)(O2)C(=O)C(=O)N2CCCC[C@H]2C(=O)O[C@H]([C@H](C)C[C@@H]2CC[C@@H](O)[C@H](OC)C2)CC(=O)[C@H](C)/C=C(\C)[C@@H](O)[C@@H](OC)C(=O)[C@H](C)C[C@H](C)/C=C/C=C/C=C/1C [Rapamycin]
- remaining activity at 3.75 µM ([1]; Well no.=1557, high concentration screen): 97.9%
- remaining activity at 3.75 µM ([1]; Well no.=2555, high concentration screen): 91.9%
- remaining activity at 3.75 µM ([1]; Well no.=3126, high concentration screen): 106%
- remaining activity at 1.25 µM ([2]; Well no.=1557, low concentration screen): 99.1%
- remaining activity at 1.25 µM ([2]; Well no.=2555, low concentration screen): 93.5%
- remaining activity at 1.25 µM ([2]; Well no.=3126, low concentration screen): 102%

SMILES: COc1ccc2nc3n[nH]c(C)c3c(NCCOCCO)c2c1 [Ras/Rac Transformation Blocker, SCH 51344]
- remaining activity at 3.75 µM ([1]; Well no.=2619, high concentration screen): 101%
- remaining activity at 1.25 µM ([2]; Well no.=2619, low concentration screen): 96.5%

SMILES: C#CCN[C@@H]1CCc2ccccc21 [Rasagiline mesylate]
- remaining activity at 3.75 µM ([1]; Well no.=4766, high concentration screen): 97.6%
- remaining activity at 1.25 µM ([2]; Well no.=4766, low concentration screen): 98.4%

SMILES: COC(=O)[C@H]1[C@H]2C[C@H]3c4[nH]c5ccccc5c4CCN3C[C@H]2CC[C@@H]1O [Rauwolscine hydrochloride]
- remaining activity at 3.75 µM ([1]; Well no.=1400, high concentration screen): 99%
- remaining activity at 1.25 µM ([2]; Well no.=1400, low concentration screen): 100%

SMILES: COC(=O)[C@H]1[C@H]2C[C@H]3c4[nH]c5ccccc5c4CCN3C[C@H]2CC[C@@H]1O [Rauwolscine]
- remaining activity at 3.75 µM ([1]; Well no.=3128, high concentration screen): 99.4%
- remaining activity at 1.25 µM ([2]; Well no.=3128, low concentration screen): 99%

SMILES: Nc1c(S(=O)(=O)O)cc(Nc2ccc(Nc3nc(Cl)nc(Nc4cccc(S(=O)(=O)O)c4)n3)c(S(=O)(=O)O)c2)c2c1C(=O)c1ccccc1C2=O [Reactive Blue 2]
- remaining activity at 3.75 µM [1]: 101%
- remaining activity at 1.25 µM [2]: 101%

SMILES: O=C(NC(Cc1cc(=O)[nH]c2ccccc12)C(=O)O)c1ccc(Cl)cc1 (stereo not drawn) [Rebamipide]
- remaining activity at 3.75 µM ([1]; Well no.=2197, high concentration screen): 98.5%
- remaining activity at 3.75 µM ([1]; Well no.=6992, high concentration screen): 98.9%
- remaining activity at 1.25 µM ([2]; Well no.=2197, low concentration screen): 99.1%
- remaining activity at 1.25 µM ([2]; Well no.=6992, low concentration screen): 95.1%

SMILES: C=C1C[C@@]23CC[C@H]4[C@@](C)(CCC[C@@]4(C)C(=O)O[C@@H]4O[C@H](CO)[C@@H](O)[C@H](O)[C@H]4O)[C@@H]2CC[C@]1(O[C@@H]1O[C@H](C)[C@@H](O)[C@H](O)[C@@H]1O[C@@H]1O[C@H](CO)[C@@H](O)[C@H](O[C@@H]2O[C@H](CO)[C@@H](O)[C@H](O)[C@H]2O)[C@H]1O)C3 [Rebaudioside C]
- remaining activity at 3.75 µM ([1]; Well no.=8446, high concentration screen): 95.9%
- remaining activity at 1.25 µM ([2]; Well no.=8446, low concentration screen): 96%

SMILES: CNC(=O)c1cnn(-c2nc(N)c3ncn([C@@H]4O[C@H](CO)[C@@H](O)[C@H]4O)c3n2)c1 [Regadenoson]
- remaining activity at 3.75 µM ([1]; Well no.=6557, high concentration screen): 103%
- remaining activity at 3.75 µM ([1]; Well no.=8367, high concentration screen): 95.1%
- remaining activity at 1.25 µM ([2]; Well no.=6557, low concentration screen): 106%
- remaining activity at 1.25 µM ([2]; Well no.=8367, low concentration screen): 96.6%

SMILES: CC(Cc1ccccc1)(NC(=O)CN)c1ccccc1 (stereo not drawn) [Remacemide hydrochloride]
- remaining activity at 3.75 µM ([1]; Well no.=5380, high concentration screen): 94.8%
- remaining activity at 1.25 µM ([2]; Well no.=5380, low concentration screen): 99%

SMILES: CCN1CCC[C@H]1CNC(=O)c1c(OC)ccc(Br)c1OC [Remoxipride]
- remaining activity at 3.75 µM ([1]; Well no.=1819, high concentration screen): 99.4%
- remaining activity at 1.25 µM ([2]; Well no.=1819, low concentration screen): 100%

SMILES: Cc1cccc(-c2[nH]ncc2-c2ccc3ncccc3n2)n1 [RepSox]
- remaining activity at 3.75 µM ([1]; Well no.=5490, high concentration screen): 95.5%
- remaining activity at 1.25 µM ([2]; Well no.=5490, low concentration screen): 96.3%

SMILES: CCOc1cc(CC(=O)N[C@@H](CC(C)C)c2ccccc2N2CCCCC2)ccc1C(=O)O [Repaglinide]
- remaining activity at 3.75 µM ([1]; Well no.=4817, high concentration screen): 95.8%
- remaining activity at 1.25 µM ([2]; Well no.=4817, low concentration screen): 101%

SMILES: CC(C)Cc1ccc([C@@H](C)C(=O)NS(C)(=O)=O)cc1 [Reparixin (L-lysine salt)]
- remaining activity at 3.75 µM ([1]; Well no.=8059, high concentration screen): 99.6%
- remaining activity at 3.75 µM ([1]; Well no.=8125, high concentration screen): 104%
- remaining activity at 1.25 µM ([2]; Well no.=8059, low concentration screen): 100%
- remaining activity at 1.25 µM ([2]; Well no.=8125, low concentration screen): 104%

SMILES: CC(C)Cc1ccc([C@@H](C)C(=O)NS(C)(=O)=O)cc1 [Reparixin]
- remaining activity at 3.75 µM ([1]; Well no.=7277, high concentration screen): 99.9%
- remaining activity at 3.75 µM ([1]; Well no.=8501, high concentration screen): 106%
- remaining activity at 1.25 µM ([2]; Well no.=7277, low concentration screen): 99.5%
- remaining activity at 1.25 µM ([2]; Well no.=8501, low concentration screen): 106%

SMILES: CCOC(=O)C1=CCCC[C@H]1S(=O)(=O)Nc1ccc(F)cc1Cl [Resatorvid]
- remaining activity at 3.75 µM ([1]; Well no.=8421, high concentration screen): 90.5%
- remaining activity at 1.25 µM ([2]; Well no.=8421, low concentration screen): 90.4%

SMILES: COC(=O)[C@H]1[C@H]2C[C@@H]3c4[nH]c5cc(OC)ccc5c4CCN3C[C@H]2C[C@@H](OC(=O)c2cc(OC)c(OC)c(OC)c2)[C@@H]1OC [Reserpine]
- remaining activity at 3.75 µM ([1]; Well no.=3833, high concentration screen): 94.7%
- remaining activity at 1.25 µM ([2]; Well no.=3833, low concentration screen): 97%

SMILES: CCOCc1nc2c(N)nc3ccccc3c2n1CC(C)(C)O [Resiquimod]
- remaining activity at 3.75 µM ([1]; Well no.=5488, high concentration screen): 107%
- remaining activity at 3.75 µM ([1]; Well no.=8499, high concentration screen): 106%
- remaining activity at 1.25 µM ([2]; Well no.=5488, low concentration screen): 107%
- remaining activity at 1.25 µM ([2]; Well no.=8499, low concentration screen): 102%

Source: paper PMC8286840, “Identifying SARS-CoV-2 antiviral compounds by screening for small molecule inhibitors of Nsp3 papain-like protease” (Biochemical Journal, 2021)
